Measurements as given in patent publication US20090306050A1, “TREATMENT AND PREVENTION OF DEPRESSION WITH PAIN, DEPRESSION SECONDARY TO PAIN, AND OF NEUROPATHIC PAIN” (priority 2006, published 2009).

Columns and labels:
[1] = tested on: ECG interval; settings: rats infused with the antidepressant; cited from earlier work
[2] = tested on: neuropathic pain; settings: in vivo; cited from earlier work
[3] = fatal poisoning/overdose, Scotland, England and Wales; cited from earlier work
[4] = tested on: severe neuropathic pain; assay: Example 2: diabetic clinic patients with severe neuropathic pain; assay type: in vivo
Source text: Four patients at a diabetic clinic present with severe neuropathic pain. Conventional analgesics are of no benefit.

[5] = tested on: major depression with aches and pains; assay: Example 1: patients with major depression and multiple aches and pains; assay type: in vivo; settings: three patients, commenced 70 mg twice daily, final 140mg to 280mg daily
Experimental: Three patients who fulfilled criteria for major depression present with multiple aches and pains for which there is no obvious physical cause. […] The final dose of medication ranges from 140mg daily to 280mg daily.

[6] = tested on: serotonin synthesis; assay: serotonin synthesis in the brain; settings: in vivo
[7] = sedation; settings: in vivo
[8] = tested on: NA and 5HT reuptake; assay: NA versus 5HT reuptake selectivity from comparative Ki's (Bolden-Watson and Richelson); assay type: biochemical
Source text: There are a number of ways in which the ratio of NA to 5HT reuptake in antidepressant molecules may be measured. The selectivity a drug for various receptors may be compared by use of comparative Ki's and not comparative IC 50 values. (Bolden-Watson, C and Richelson, E., Life Sci, (52), 1993, 1023-1029), which is hereby incorporated by reference.

[9] = molecular target: D2 receptor (Homo sapiens, UniProt P14416); assay: activity at the dopamine D2 receptor
D2 receptor, sequence (P14416 whole entry): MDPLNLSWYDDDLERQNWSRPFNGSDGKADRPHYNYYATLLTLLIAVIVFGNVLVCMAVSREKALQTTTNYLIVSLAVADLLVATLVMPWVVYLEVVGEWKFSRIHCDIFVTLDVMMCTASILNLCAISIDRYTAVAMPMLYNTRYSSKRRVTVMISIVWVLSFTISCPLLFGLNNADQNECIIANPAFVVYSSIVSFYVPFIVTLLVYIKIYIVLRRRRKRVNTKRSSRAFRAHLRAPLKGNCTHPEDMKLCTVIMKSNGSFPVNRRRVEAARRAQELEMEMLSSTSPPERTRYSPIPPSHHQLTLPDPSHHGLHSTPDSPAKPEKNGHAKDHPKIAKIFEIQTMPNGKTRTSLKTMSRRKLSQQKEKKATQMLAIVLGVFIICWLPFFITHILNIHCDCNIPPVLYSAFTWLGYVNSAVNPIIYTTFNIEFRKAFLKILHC

For `CN(C)CCC=C1c2ccccc2CCc2ccccc21` [amitriptyline], the “prolongation of the ECG interval” value [1] is listed as “prolong the ECG interval”.
In the case of `CC(NC(C)(C)C)C(=O)c1cccc(Cl)c1` (centres unmarked) [buproprion], the “effectiveness in neuropathic pain” value [2] is listed as “has not been found to be effective”.
In the case of `CNCCCN1c2ccccc2CCc2ccccc21` [desipramine], the “prolongation of the ECG interval” value [1] is listed as “prolong the ECG interval” and the “fatalities per million prescriptions” value [3] is listed as 200.9 per million prescriptions.
In the case of `CNCC[C@H](Oc1cccc2ccccc12)c1cccs1` [duloxetine], the “response of neuropathic pain to prior treatment” value ([4]; four diabetic patients, prescribed before lofepramine) is reported as “failed to respond”.
In the case of `CN(C)CCCN1c2ccccc2CCc2ccccc21` [imipramine], the “prolongation of the ECG interval” value [1] is listed as “prolong the ECG interval”.
For `CN(CCCN1c2ccccc2CCc2ccccc21)CC(=O)c1ccc(Cl)cc1` [lofepramine], the “prolongation of the ECG interval” value [1] is given as “does not”, the “improvement in symptoms including pain” value [5] is given as “All three show improvement in all symptoms including pain within four weeks” and the “fatalities per million prescriptions” value [3] is given as 1.3 per million prescriptions. The “effect on serotonin synthesis in the brain” value [6] was “up-regulate serotonin synthesis in the brain”, the induction of sedation [7] was “does not induce sedation” and the “NA:5HT ratio relative to desipramine” value [8] was “about four times that of desipramine”. For the same molecule, the “NE: 5-HT ratio relative to milnacipran” value [8] was “higher than that of milnacipran”, the “activity at the D2 receptor” value [9] was “potent activity” and the “relief of neuropathic pain” value ([4]; four diabetic patients, 70 mg tds, after failure of analgesics and duloxetine) was “dramatic relief of pain in 3 of the 4 cases”. For the same molecule, the “response after escalation of the dose” value ([4]; patient 4, escalated dose) was “results in improvement”.
In the case of `COc1ccc(C(CN(C)C)C2(O)CCCCC2)cc1` (centres unmarked) [venlafaxine], the “fatalities per million prescriptions” value [3] is listed as 13.2 per million prescriptions.
